Assay results: patent US20210323977A1, “PYRROLIDINYL AMIDE COMPOUNDS FOR THE TREATMENT OF AUTOIMMUNE DISEASE” (Hoffmann-La Roche Inc., priority 2018, published 2021)

These compounds were tested against T1, human TLR8 (Homo sapiens, UniProt Q9NR97) (assay: HEK293-Blue-hTLR-8 cells assay). Conditions: HEK293-Blue-hTLR8 cells, SEAP reporter, R848 stimulation, 20 hrs.
T1 sequence (Q9NR97 27-1041): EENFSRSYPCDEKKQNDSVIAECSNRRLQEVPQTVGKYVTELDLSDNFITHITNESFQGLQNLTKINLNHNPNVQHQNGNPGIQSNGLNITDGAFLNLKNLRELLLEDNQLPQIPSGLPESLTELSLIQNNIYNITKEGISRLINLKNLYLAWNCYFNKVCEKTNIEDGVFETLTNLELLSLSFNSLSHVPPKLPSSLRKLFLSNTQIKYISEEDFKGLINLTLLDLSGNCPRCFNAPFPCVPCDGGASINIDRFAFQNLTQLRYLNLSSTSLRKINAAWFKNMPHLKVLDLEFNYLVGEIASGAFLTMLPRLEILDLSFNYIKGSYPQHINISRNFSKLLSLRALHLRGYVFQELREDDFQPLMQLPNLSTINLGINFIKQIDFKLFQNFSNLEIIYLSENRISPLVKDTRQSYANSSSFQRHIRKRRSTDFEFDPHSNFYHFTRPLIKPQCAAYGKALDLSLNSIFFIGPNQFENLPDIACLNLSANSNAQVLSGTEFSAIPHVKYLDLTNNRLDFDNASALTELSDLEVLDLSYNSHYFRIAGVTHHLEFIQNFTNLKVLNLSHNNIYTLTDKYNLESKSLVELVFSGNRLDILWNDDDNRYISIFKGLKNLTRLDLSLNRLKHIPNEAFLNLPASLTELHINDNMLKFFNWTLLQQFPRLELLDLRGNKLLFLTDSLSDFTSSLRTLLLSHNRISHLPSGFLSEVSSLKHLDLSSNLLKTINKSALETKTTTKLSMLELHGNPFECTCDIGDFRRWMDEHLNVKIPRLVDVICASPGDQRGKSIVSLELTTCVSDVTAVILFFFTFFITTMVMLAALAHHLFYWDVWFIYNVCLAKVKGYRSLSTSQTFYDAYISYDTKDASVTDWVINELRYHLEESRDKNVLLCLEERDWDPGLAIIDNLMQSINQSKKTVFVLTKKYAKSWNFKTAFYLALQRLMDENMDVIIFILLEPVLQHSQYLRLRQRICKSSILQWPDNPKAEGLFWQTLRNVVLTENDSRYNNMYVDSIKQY
Format: cell-based
From the text: HEK293-Blue-hTLR-8 Cells Assay:
A stable HEK293-Blue-hTLR-8 cell line was purchased from InvivoGen (Cat. #: hkb-htlr8, San Diego, Calif., USA). These cells were originally designed for studying the stimulation of human TLR8 by monitoring the activation of NF-κB. A SEAP (secreted embryonic alkaline phosphatase) reporter gene was placed under the control of the IFN-β minimal promoter fused to five NF-κB and AP-1-binding sites. The SEAP was induced by activating NF-κB and AP-1 via stimulating HEK-Blue hTLR8 cells with TLR8 ligands. Therefore the reporter expression was declined by TLR8 antagonist under the stimulation of a ligand, such as R848, for incubation of 20 hrs. The cell culture supernatant SEAP reporter activity was determined using QUANTI-Blue™ kit (Cat. #: rep-qb1, Invivogen, San Diego, Ca, USA) at a wavelength of 640 nm, a detection medium that turns purple or blue in the presence of alkaline phosphatase.
HEK293-Blue-hTLR8 cells were incubated at a density of 250,000-450,000 cells/mL in a volume of 170 μL in a 96-well plate in Dulbecco's Modified Eagle's medium (DMEM) containing 4.5 g/L glucose, 50 U/mL penicillin, […], […], 2 mM L-glutamine, 10% (v/v) heat-inactivated fetal bovine serum with addition of 20 μL test compound in a serial dilution in the presence of final DMSO at 1% and 10 sL of 60 uM R848 in above DMEM, perform incubation under 37° C. in a CO2 incubator for 20 hrs. Then 20 μL of the supernatant from each well was incubated with 180 sL Quanti-blue substrate solution at 37° C. for 2 hrs and the absorbance was read at 620˜655 nm using a spectrophotometer. The signalling pathway that TLR8 activation leads to downstream NF-κB activation has been widely accepted, and therefore similar reporter assay was modified for evaluating TLR8 antagonist.

Question: With `CN1CCC(NC(=O)[C@@H]2CN(c3ccc(C#N)c4ncccc34)C[C@H]2C2CC2)CC1` (relative stereo) [Example 14, Trans-1-(8-cyano-5-quinolyl)-4-cyclopropyl-N-(1-methyl-4-piperidyl)pyrrolidine-3-carboxamide] as the compound, how does the IC50 read?
Answer: 0.193 µM

Question: For `CN1CCC(NC(=O)[C@@H]2CN(c3ccc(C#N)c4ncccc34)C[C@H]2C(F)(F)F)CC1` (relative stereo) [Example 17, Trans-1-(8-cyano-5-quinolyl)-N-(1-methyl-4-piperidyl)-4-(trifluoromethyl)pyrrolidine-3-carboxamide], which IC50 is on record?
Answer: 0.066 µM

Question: For `C[C@@H]1CN(c2ccc(C#N)c3ncccc23)C[C@H]1C(=O)NC1CCN(C)CC1` (relative stereo) [Example 28], which IC50 is on record?
Answer: 0.052 µM

Question: How did the IC50 turn out when `CC[C@@H]1CN(c2ccc(C#N)c3ncccc23)C[C@H]1C(=O)NC1CCN(C)CC1` (relative stereo) [Example 29, Trans-1-(8-cyano-5-quinolyl)-4-ethyl-N-(1-methyl-4-piperidyl)pyrrolidine-3-carboxamide] was run?
Answer: 0.096 µM

Question: `C[C@@H]1CN(c2ccc(C#N)c3ncccc23)C[C@H]1C(=O)N1CCC2(CCNCC2)CC1` (relative stereo) [Example 32, Trans-5-[3-(3,9-diazaspiro[5.5]undecane-3-carbonyl)-4-methyl-pyrrolidin-1-yl]quinoline-8-carbonitrile] was tested. Which IC50 did it give?
Answer: 0.213 µM

Question: How did the IC50 turn out when `CC(C)[C@@H]1CN(c2ccc(C#N)c3ncccc23)C[C@H]1C(=O)NC1CCN(C)CC1` (relative stereo) [Example 37, Trans-1-(8-cyano-5-quinolyl)-4-isopropyl-N-(1-methyl-4-piperidyl)pyrrolidine-3-carboxamide] was run?
Answer: 0.489 µM

Question: Which IC50 does the source give for `CN1CCC(NC(=O)[C@@H]2CN(c3ccc(C#N)c4ncccc34)C[C@H]2C(F)F)CC1` (relative stereo) [Example 40, Trans-1-(8-cyano-5-quinolyl)-4-(difluoromethyl)-N-(1-methyl-4-piperidyl)pyrrolidine-3-carboxamide] here?
Answer: 0.134 µM

Question: With `N[C@@H]1CCC[C@H](NC(=O)C2CN(c3ccc(C(F)(F)F)c4nccnc34)CC23CC3)C1` (relative stereo) [Example 43, Cis-N-(3-aminocyclohexyl)-5-[8-(trifluoromethyl)quinoxalin-5-yl]-5-azaspiro[2.4]heptane-7-carboxamide] as the compound, how does the IC50 read?
Answer: 0.124 µM

Question: Which IC50 does the source give for `CN1CCC(NC(=O)[C@@H]2CN(c3ccc(Cl)c4ncccc34)C[C@H]2C(F)(F)F)CC1` (relative stereo) [Example 46, Trans-1-(8-chloro-5-quinolyl)-N-(1-methyl-4-piperidyl)-4-(trifluoromethyl)pyrrolidine-3-carboxamide] here?
Answer: 0.051 µM

Question: `C[C@@H]1CN(c2ccc(C#N)c3ncccc23)C[C@H]1C(=O)N1CCC2(CCNC2)C1` (relative stereo) [Example 53, Trans-5-[3-(2,7-diazaspiro[4.4]nonane-2-carbonyl)-4-methyl-pyrrolidin-1-yl]quinoline-8-carbonitrile] was tested. Which IC50 did it give?
Answer: 0.225 µM

Question: For `CN1CCC(NC(=O)C2CN(c3ccc(C#N)c4nccnc34)CC23CC3)CC1` (single isomer, unassigned) [Example 7A, 5-(8-Cyanoquinoxalin-5-yl)-N-(1-methyl-4-piperidyl)-5-azaspiro[2.4]heptane-7-carboxamide], which IC50 is on record?
Answer: 0.007 µM

Question: With `CN1CCC(NC(=O)C2CN(c3ccc(C#N)c4nccnc34)CC23CC3)CC1` (single isomer, unassigned) [Example 7B, 5-(8-Cyanoquinoxalin-5-yl)-N-(1-methyl-4-piperidyl)-5-azaspiro[2.4]heptane-7-carboxamide] as the compound, how does the IC50 read?
Answer: 0.026 µM

Question: Which IC50 does the source give for `N#Cc1ccc(N2CC(C(=O)NC3CCCNCC3)C(C(F)(F)F)C2)c2cccnc12` (single isomer, unassigned) [Example 30A, N-(azepan-4-yl)-1-(8-cyano-5-quinolyl)-4-(trifluoromethyl)pyrrolidine-3-carboxamide] here?
Answer: 0.067 µM

Question: How did the IC50 turn out when `N#Cc1ccc(N2CC(C(=O)NC3CCCNCC3)C(C(F)(F)F)C2)c2cccnc12` (single isomer, unassigned) [Example 30B, N-(azepan-4-yl)-1-(8-cyano-5-quinolyl)-4-(trifluoromethyl)pyrrolidine-3-carboxamide] was run?
Answer: 0.173 µM

Question: For `CN1CCC(NC(=O)C2CN(c3ccc(C#N)c4ncccc34)CC23CC3)CC1` (single isomer, unassigned) [Example 41A, 5-(8-Cyano-5-quinolyl)-N-(1-methyl-4-piperidyl)-5-azaspiro[2.4]heptane-7-carboxamide], which IC50 is on record?
Answer: 0.191 µM

Question: For `C[C@@H]1CN(c2ccc(C#N)c3ncccc23)C[C@H]1C(=O)NC1CCCNCC1` (single isomer, unassigned) [Example 52A, Trans-N-(azepan-4-yl)-1-(8-cyano-5-quinolyl)-4-methyl-pyrrolidine-3-carboxamide], which IC50 is on record?
Answer: 0.225 µM

Question: How did the IC50 turn out when `C[C@@H]1CN(c2ccc(C#N)c3ncccc23)C[C@H]1C(=O)NC1CCCNCC1` (single isomer, unassigned) [Example 52B, Trans-N-(azepan-4-yl)-1-(8-cyano-5-quinolyl)-4-methyl-pyrrolidine-3-carboxamide] was run?
Answer: 0.274 µM

Question: How did the IC50 turn out when `N#Cc1ccc(N2CC(C(=O)NC[C@H]3CNCCO3)C3(CC3)C2)c2nccnc12` (single isomer, unassigned) [Example 70A] was run?
Answer: 0.034 µM

Question: For `N#Cc1ccc(N2CC(C(=O)NC[C@H]3CNCCO3)C3(CC3)C2)c2nccnc12` (single isomer, unassigned) [Example 70B], which IC50 is on record?
Answer: 0.168 µM

Question: `N#Cc1ccc(N2CC(C(=O)NC[C@@H]3CNCCO3)C3(CC3)C2)c2nccnc12` (single isomer, unassigned) [Example 71A] was tested. Which IC50 did it give?
Answer: 0.075 µM

Question: With `N#Cc1ccc(N2CC(C(=O)NC[C@@H]3CNCCO3)C3(CC3)C2)c2nccnc12` (single isomer, unassigned) [Example 71B] as the compound, how does the IC50 read?
Answer: 0.134 µM

Question: `CN1CCC(NC(=O)[C@H]2CN(c3ccc(C#N)c4nccnc34)C[C@@H]2C(F)(F)F)CC1` [Example 1, (3R,4R)-1-(8-cyanoquinoxalin-5-yl)-N-(1-methyl-4-piperidyl)-4-(trifluoromethyl) pyrrolidine-3-carboxamide] was tested. Which IC50 did it give?
Answer: 0.013 µM

Question: `CN1CCC(NC(=O)[C@H]2CN(c3ccc(C(F)(F)F)c4nccnc34)C[C@@H]2C(F)(F)F)CC1` [Example 2, (3R,4R)—N-(1-methyl-4-piperidyl)-4-(trifluoromethyl)-1-[8-(trifluoromethyl)quinoxalin-5-yl]pyrrolidine-3-carboxamide] was tested. Which IC50 did it give?
Answer: 0.018 µM

Question: `C[C@H]1CN(c2ccc(C#N)c3nccnc23)C[C@@H]1C(=O)NC1CCN(C)CC1` [Example 3, (3R,4R)-1-(8-cyanoquinoxalin-5-yl)-4-methyl-N-(1-methyl-4-piperidyl)pyrrolidine-3-carboxamide] was tested. Which IC50 did it give?
Answer: 0.005 µM

Question: `CN1CCC(NC(=O)[C@H]2CN(c3ccc(C#N)c4ncccc34)C[C@@H]2C(F)(F)F)CC1` [Example 4, (3R,4R)-1-(8-cyano-5-quinolyl)-N-(1-methyl-4-piperidyl)-4-(trifluoromethyl)pyrrolidine-3-carboxamide] was tested. Which IC50 did it give?
Answer: 0.025 µM

Question: Which IC50 does the source give for `C[C@H]1CN(c2ccc(C(F)(F)F)c3nccnc23)C[C@@H]1C(=O)NC1CCN(C)CC1` [Example 5, (3R,4R)-4-methyl-N-(1-methyl-4-piperidyl)-1-[8-(trifluoromethyl)quinoxalin-5-yl]pyrrolidine-3-carboxamide] here?
Answer: 0.011 µM
